Consider 26 compounds from patent US9512111B2, “N-sulfonylated tetrahydroquinolines and related bicyclic compounds for inhibition of RORγ activity and the treatment of disease” (Lycera Corporation, priority 2010, dated 2016).

Where only a bound is given, the exact number is not on record here.

For one assay, the target named is T1, RORγt (Homo sapiens, UniProt P51449).
T1 construct: The resulting GAL4-RORγt-LBD fusion construct was placed under the control of a constitutive cytomegalovirus (CMV) promoter; expressed in transfected cells; host or cells: HEK293
T1 sequence (P51449 269-508 limits assumed): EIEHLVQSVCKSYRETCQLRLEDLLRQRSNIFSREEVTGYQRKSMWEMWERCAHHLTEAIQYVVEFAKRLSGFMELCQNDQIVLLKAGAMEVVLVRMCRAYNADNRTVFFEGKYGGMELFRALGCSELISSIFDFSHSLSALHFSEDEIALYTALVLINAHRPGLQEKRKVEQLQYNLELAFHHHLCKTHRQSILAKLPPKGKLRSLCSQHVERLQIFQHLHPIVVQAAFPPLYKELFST
The assay is described as follows: RORγ Reporter Assay (GAL4-UAS luciferase reporter in HEK293 cells). In kind it is cell-based. As to conditions: benzoxazines, Table 9; HEK cells.

Another assay has as its target T2, RORγ-LBD (Homo sapiens, UniProt P51449).
T2 construct: HIS-tagged RORγ-LBD was recombinantly expressed in SF9 cells; made in house; host or cells: SF9 cells (baculovirus); unpurified lysate
T2 sequence (P51449 269-508 limits assumed): T1 sequence (P51449 269-508 limits assumed)
The assay is described as follows: RORγ-Ligand Binding Domain TR-FRET Assay. As to conditions: benzoxazines, Table 9. In kind it is biochemical. Summed up:
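IC50 derived from the 665 nm/615 nm emission ratio after 4 h to overnight incubation. Mixture: Sf9 lysate with His-tagged LBD (~10 nM final, not purified), SRC1-2 LXXLL biotin peptide at 450 nM, 2 nM europium anti-His antibody, 60 nM APC-streptavidin; buffer 25 mM HEPES pH 7.0, 100 mM NaCl, 0.01% Tween, 0.1% BSA.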
In general terms: TR-FRET usually uses a lanthanide donor and a delayed reading to cut background.

Take `O=C(Nc1ccc2c(c1)N(S(=O)(=O)c1ccc(F)c(F)c1)C[C@H](CO)O2)c1c(F)cccc1Cl` [VI-42]: the IC50 against RORγt and at RORγ-LBD was less than 15 µM in each case.
On to `O=C(Nc1cc2c(cc1F)O[C@@H](CO)CN2S(=O)(=O)c1ccc(F)cc1)c1c(Cl)cccc1Cl` [VI-40], for which the IC50 at RORγt and at RORγ-LBD was less than 15 µM throughout.
`CCOCC1CN(S(=O)(=O)c2cccc(C#N)c2)c2cc(NC(=O)c3c(F)cccc3Cl)ccc2O1` (stereo not shown) [VI-100]: the IC50 against RORγt and on RORγ-LBD was less than 15 µM in each case.
Take `COc1ccc(S(=O)(=O)N2C[C@H](CO)Oc3ccc(NC(=O)c4c(F)cccc4C(F)(F)F)cc32)cn1` [VI-25]: the half-inhibitory concentration (IC50) at RORγt and at RORγ-LBD was less than 15 µM in each case.
On to `N#Cc1cccc(S(=O)(=O)N2C[C@H](CN3CCCC3)Oc3ccc(NC(=O)c4c(F)cccc4Cl)cc32)c1` [Compound 21, (S)-2-Chloro-N-(4-((3-cyanophenyl)sulfonyl)-2-(pyrrolidin-1-ylmethyl)-3,4-dihydro-2H-benzo[b][1,4]oxazin-6-yl)-6-fluorobenzamide], for which the IC50 on RORγt and on RORγ-LBD was less than 15 µM in each case.
With `CC1(C)CN(S(=O)(=O)c2ccc(F)cc2)c2cc(NC(=O)c3c(F)cccc3Cl)ccc2O1` [Compound 16, 2-Chloro-6-fluoro-N-(4-((4-fluorophenyl)sulfonyl)-2,2-dimethyl-3,4-dihydro-2H-benzo[b][1,4]oxazin-6-yl)benzamide], the IC50 against RORγt and on RORγ-LBD was less than 15 µM each time.
Consider `COc1ccc(S(=O)(=O)N2C[C@H](CO)Oc3cc(F)c(NC(=O)c4c(F)cccc4Cl)cc32)cn1` [VI-46], for which the IC50 against RORγt and on RORγ-LBD was less than 15 µM each time.
As to `Cc1nn(C(F)F)cc1S(=O)(=O)N1C[C@H](C)Oc2ccc(NC(=O)c3c(F)cccc3F)cc21` [VI-8], the IC50 against RORγt and on RORγ-LBD was less than 15 µM throughout.
For the compound `Cc1cccc(F)c1C(=O)Nc1ccc2c(c1)N(S(=O)(=O)c1cccc(C#N)c1)C[C@H](CO)O2` [VI-45], the IC50 at RORγt and at RORγ-LBD was less than 15 µM throughout.
For the compound `O=C(Nc1ccc2c(c1)N(S(=O)(=O)c1ccc(F)cc1)C[C@H](CO)O2)c1c(Cl)cccc1Cl` [VI-83], the IC50 against RORγt and on RORγ-LBD was less than 15 µM in each case.
`CC(C)OCC1CN(S(=O)(=O)c2ccc(F)cc2)c2cc(NC(=O)c3c(Cl)cccc3C(F)(F)F)ccc2O1` (stereo not shown) [VI-123]: the IC50 on RORγt and on RORγ-LBD was less than 15 µM each time.
With `O=C(Nc1ccc2c(c1)N(S(=O)(=O)c1ccc(F)cc1)CC(CNCC1CC1)O2)c1c(F)cccc1Cl` (stereo not shown) [VI-32], the IC50 at RORγt and on RORγ-LBD was less than 15 µM throughout.
Turning to `CC(C)OCC1CN(S(=O)(=O)c2ccc(F)cc2)c2cc(NC(=O)c3c(Cl)cccc3Cl)ccc2O1` (stereo not shown) [VI-109], the IC50 on RORγt and on RORγ-LBD was less than 15 µM in each case.
For `CCOCC1CN(S(=O)(=O)c2ccc(Cl)cc2)c2cc(NC(=O)c3c(F)cccc3Cl)ccc2O1` (stereo not shown) [VI-93], the IC50 against RORγt and at RORγ-LBD was less than 15 µM throughout.
For the compound `COCC1CN(S(=O)(=O)c2ccc(F)cc2)c2cc(NC(=O)c3c(F)cccc3F)ccc2O1` (stereo not shown) [VI-113], the concentration for half-maximal inhibition (IC50) against RORγt and on RORγ-LBD was less than 15 µM in each case.
In the case of `CC(C)(C)CNCC1CN(S(=O)(=O)c2ccc(F)cc2)c2cc(NC(=O)c3c(F)cccc3Cl)ccc2O1` (stereo not shown) [VI-36], the IC50 at RORγt and on RORγ-LBD was less than 15 µM in each case.
On to `CC1(C)CN(S(=O)(=O)c2ccc(F)cc2)c2cc(NC(=O)c3c(F)cccc3C(F)(F)F)ccc2O1` [VI-124], for which the IC50 on RORγt and at RORγ-LBD was less than 15 µM each time.
Take `COCC1CN(S(=O)(=O)c2ccc(F)c(F)c2)c2cc(NC(=O)c3c(F)cccc3Cl)ccc2O1` (stereo not shown) [VI-80]: the IC50 against RORγt and on RORγ-LBD was less than 15 µM throughout.
In the case of `Cc1cccc(C)c1C(=O)Nc1ccc2c(c1)N(S(=O)(=O)c1ccc(F)cc1)C[C@H](CO)O2` [VI-49], the IC50 against RORγt and on RORγ-LBD was less than 15 µM in each case.
As to `Cc1nn(C(F)F)cc1S(=O)(=O)N1C[C@H](C)Oc2ccc(NC(=O)c3c(Cl)cccc3Cl)cc21` [VI-9], the IC50 against RORγt and on RORγ-LBD was less than 15 µM in each case.
With `COCC1CN(S(=O)(=O)c2cccc(C#N)c2)c2cc(NC(=O)c3c(F)cccc3Cl)ccc2O1` (stereo not shown) [VI-101], the IC50 against RORγt and at RORγ-LBD was less than 15 µM throughout.
Consider `O=C(Nc1ccc2c(c1)N(S(=O)(=O)c1ccc(F)cc1)CCO2)c1c(Cl)cccc1Cl` [VI-129], for which the IC50 on RORγt and at RORγ-LBD was less than 15 µM in each case.
In the case of `COCC1CN(S(=O)(=O)c2ccc(F)cc2)c2cc(NC(=O)c3c(F)cccc3Cl)ccc2O1` (stereo not shown) [VI-119], the IC50 against RORγt and at RORγ-LBD was less than 15 µM throughout.
As to `O=C(Nc1ccc2c(c1)N(S(=O)(=O)c1ccc(F)cc1)C[C@@H](CO)O2)c1c(Cl)cccc1C(F)(F)F` [VI-122], the IC50 on RORγt and at RORγ-LBD was less than 15 µM each time.
In the case of `O=C(Nc1ccc2c(c1)N(S(=O)(=O)c1ccc(F)cc1)C[C@@H](CO)O2)c1c(F)cccc1F` [VI-110], the IC50 against RORγt and at RORγ-LBD was less than 15 µM in each case.
In the case of `O=C(Nc1ccc2c(c1)N(S(=O)(=O)c1ccc(Cl)cc1)C[C@H](CO)O2)c1c(Cl)cccc1C(F)(F)F` [VI-84], the IC50 against RORγt and on RORγ-LBD was less than 15 µM each time.

By IC50 is commonly meant the point on the concentration scale where inhibition reaches its midpoint.
